Experimental data published in ChEMBL document CHEMBL5055627 (J Med Chem, 2021).

Columns and labels:
[1] = system: human 20S constitutive proteasome subunit beta-5c (versus Mycobacterium tuberculosis 20S open gate mutant); assay: Selectivity index, ratio of IC50 for human 20S constitutive proteasome subunit beta-5c to IC50 for Mycobacterium tuberculosis 20S open gate mutant; type: toxicity; conditions: read-out: Ratio IC50
[2] = Inhibition of Mycobacterium tuberculosis 20S proteasome open gate mutant expressed in Escherichia coli BL21(DE3) using Suc-LLVY-AMC as substrate measured over 1.5 to 2 hrs by plate reader assay
[3] = system: human 20S immunoproteasome subunit beta-5i (versus Mycobacterium tuberculosis 20S open gate mutant); assay: Selectivity index, ratio of IC50 for human 20S immunoproteasome subunit beta-5i to IC50 for Mycobacterium tuberculosis 20S open gate mutant; type: toxicity; conditions: read-out: Ratio IC50

Row | SMILES | selectivity ratio [1] | IC50 [2] | selectivity ratio [3]
1 | O=C1CCCCCCCCOC[C@@H](C(=O)NCc2ccccc2F)NC(=O)[C@H](CC(=O)N2CCC[C@@H]2c2ccccc2)N1 | > 14000 | 7 nM | > 14000
2 | CCN(CC)C(=O)C[C@H](NC(=O)CCc1ccccc1)C(=O)N[C@@H](Cc1ccc(F)cc1)C(=O)NCc1cccc2ccccc12 | 4670 | 15 nM | 3650
3 | O=C(N[C@H]1Cc2cccc(c2)Oc2ccc(cc2)C[C@@H](C(=O)NCc2ccccc2F)NC(=O)[C@H](CC(=O)N2CCC[C@@H]2c2ccccc2)NC1=O)c1ccccc1 | > 119 | 840 nM | > 119
4 | CC(=O)N[C@H]1Cc2cccc(c2)Oc2ccc(cc2)C[C@@H](C(=O)NCc2ccccc2F)NC(=O)[C@H](CC(=O)N2CCC[C@@H]2c2ccccc2)NC1=O | > 594 | 170 nM | > 594
5 | O=C1CCc2cccc(c2)OCCCC[C@@H](C(=O)NCc2ccccc2F)NC(=O)[C@H](CC(=O)N2CCC[C@@H]2C2CC2)N1 | 11 | 7 nM | 11
6 | O=C1CCc2cccc(c2)Oc2ccc(cc2)C[C@@H](C(=O)NCc2ccccc2F)NC(=O)[C@H](CC(=O)N2CCCC2)N1 | – | 200 nM | 108
7 | O=C1CCc2cccc(c2)OCCCC[C@@H](C(=O)NCc2ccccc2F)NC(=O)[C@H](CC(=O)N2CCC[C@H]2C2CC2)N1 | 19 | 79 nM | 11
8 | O=C1CCCCCCCCCC[C@@H](C(=O)NCc2cccc3ccccc23)NC(=O)[C@H](CC(=O)N2CCCC2)N1 | – | 150 nM | –
9 | O=C1CCc2cccc(c2)OCCCC[C@@H](C(=O)NCc2ccccc2F)NC(=O)[C@H](CCN2CCC[C@@H]2c2ccccc2)N1 | 57 | 1500 nM | 31
10 | O=C1CCCCCCCCC[C@@H](C(=O)NCc2cccc3ccccc23)NC(=O)[C@H](CC(=O)N2CCCC2)N1 | – | 710 nM | –
11 | O=C1CCCCCCCCOC[C@@H](C(=O)NCc2cccc3ccccc23)NC(=O)[C@H](CC(=O)N2CCCC2)N1 | – | 100 nM | –
12 | O=C1N[C@@H](CC(=O)N2CCCC2)C(=O)N[C@H](C(=O)NCc2cccc3ccccc23)CCCCCCCCCC1Cc1ccccc1 (some centres undefined) | – | 5000 nM | –
13 | O=C1CCc2cccc(c2)OCCCC[C@@H](C(=O)NCc2ccccc2F)NC(=O)[C@H](CC(=O)N2CCC[C@@H]2c2ccccc2)N1 | > 14000 | 7 nM | > 14000
14 | Cc1ccc(CNC(=O)[C@@H]2Cc3cccc(c3)Oc3cccc(c3)C[C@H](N)C(=O)N[C@@H](CCc3ccccc3)C(=O)N2)cc1 | – | > 100000 nM | –
15 | O=C1CCc2cccc(c2)Oc2ccc(cc2)C[C@@H](C(=O)NCc2ccccc2F)NC(=O)[C@H](CC(=O)N2CCC[C@@H]2c2ccccc2)N1 | > 13600 | 7.4 nM | > 13600
